The text below walks through data of patent US7169559B2, “LDL receptor-related proteins 1 and 2 and treatment of bone or cartilage conditions” (Fonterra Corporate Research and Development Ltd., priority 2002, dated 2007).

The subject of experiment [1] is cultured osteoblastic cells. Briefly: osteoblast proliferation (mitogenic/osteogenic effect). It is filed as cell-based, rat, mouse, and human. On the procedure:
Osteoblasts were isolated from 20-day old fetal rat calvariae as previously described (Cornish et al. (1999) Amer. J. Physiol-Endocrinol. Metab. 277:E779–E783). Briefly, calvariae were excised and the frontal and parietal bones, free of suture and periosteal tissue, were collected. After washing, the calvariae were treated twice with 3 mL of 1 mg/mL collagenase for 7 minutes at 37° C. After discarding the supernatants from these two digestions, the calvariae were treated a further twice with 3 mL of 2 mg/mL collagenase (30 mins, 37° C.). The supernatants of the latter two digestions were pooled, centrifuged, and the cells washed. Cells were grown to confluence and then subcultured into 24 well plates. Cells were growth arrested in minimum essential medium (MEM)/0.1% bovine serum albumin for 24 h before harvest.
The human osteoblast-like osteosarcoma cell line SaOS-2 was maintained in DMEM (GIBCO 12100-046) supplemented with 2.2 g/L NaHCO3, 10% FBS, and 10 ml/L penicillin-streptomycin (GIBCO 15140-122). Cells were plated in 75 cm^2 flasks and when confluent used for total RNA isolation or proliferation assays.

In the next experiment the test system is bacterial. The settings on record: cited from earlier work.

Take Lactoferricin: the “osteogenic effect / osteogenic activity” value in experiment [1] is “only a modest osteogenic effect”. The bacterial killing entry with bacterial is “effective in bacterial killing”.

With “Transferrin: Transferrin, compared with lactoferrin as mitogen on osteoblasts [reference compound]”, the “mitogenic effect on osteoblasts” value in experiment [1] is on record as “not a potent mitogen”.
